Assay results as given in article PMC6641755 (ACS Omega, 2017).

Columns and labels:
Type in all cases: binding
[1] = biological target: Bruton's tyrosine kinase (Btk) kinase domain (Homo sapiens, UniProt Q06187); assay: ITC titration
BLK = BLK (Homo sapiens, UniProt P51451); assay: KinomeScan
[2] = biological target: T1, TYK2 (JH1domain-catalytic) (Homo sapiens, UniProt P29597); assay: KinomeScan
T1 sequence (P29597 897-1176 limits assumed): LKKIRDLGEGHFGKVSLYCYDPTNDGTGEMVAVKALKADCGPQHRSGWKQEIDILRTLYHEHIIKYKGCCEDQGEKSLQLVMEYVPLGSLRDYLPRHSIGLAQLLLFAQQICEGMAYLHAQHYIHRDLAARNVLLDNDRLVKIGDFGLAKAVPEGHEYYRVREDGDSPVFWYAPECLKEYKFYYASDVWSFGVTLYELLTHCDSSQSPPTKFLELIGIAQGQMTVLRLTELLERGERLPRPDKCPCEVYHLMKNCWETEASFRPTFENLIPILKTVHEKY

BLK, sequence (P51451 2-505): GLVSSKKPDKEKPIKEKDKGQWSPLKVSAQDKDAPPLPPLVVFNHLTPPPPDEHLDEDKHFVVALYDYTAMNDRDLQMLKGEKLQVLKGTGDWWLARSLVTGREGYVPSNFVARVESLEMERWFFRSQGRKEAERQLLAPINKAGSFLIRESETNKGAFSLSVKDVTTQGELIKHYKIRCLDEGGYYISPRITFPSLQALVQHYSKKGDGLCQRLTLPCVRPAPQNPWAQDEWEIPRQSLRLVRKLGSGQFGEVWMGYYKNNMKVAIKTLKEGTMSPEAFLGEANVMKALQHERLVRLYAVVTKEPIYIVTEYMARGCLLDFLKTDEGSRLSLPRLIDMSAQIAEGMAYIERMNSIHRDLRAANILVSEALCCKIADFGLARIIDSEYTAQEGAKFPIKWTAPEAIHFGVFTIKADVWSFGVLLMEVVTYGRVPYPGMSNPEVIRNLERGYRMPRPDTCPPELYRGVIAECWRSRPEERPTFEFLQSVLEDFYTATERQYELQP
Bruton's tyrosine kinase (Btk) kinase domain, sequence (Q06187 387-569): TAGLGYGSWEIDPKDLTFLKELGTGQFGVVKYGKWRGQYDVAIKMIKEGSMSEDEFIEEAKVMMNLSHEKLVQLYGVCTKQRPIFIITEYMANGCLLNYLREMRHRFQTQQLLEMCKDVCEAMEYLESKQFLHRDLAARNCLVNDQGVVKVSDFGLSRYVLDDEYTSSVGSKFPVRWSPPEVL

- Kd [1]: 250 nM
- activity at 10 µM (BLK): 0.4%
- activity at 10 µM [2]: 0.8%
SMILES: c1nc2c(Nc3ccc4c(c3)OCCO4)nc(Nc3ccc4c(c3)OCCO4)nc2[nH]1 [L6, N2,N6-bis(2,3-dihydrobenzo[b][1,4]dioxin-6-yl)-9H-purine-2,6-diamine]
